The compounds below were run on U87MG cells (assay: Cytotoxicity assay (cell viability, CellTiter 96 Aqueous MTS)). Conditions: Homo sapiens, U-87 MG, 72 h, 72 hours incubation, starting concentration 50 uM, 9 point half log dilution, average where tested repeatedly.
Type: cell-based
Outline: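 U87MG cells plated at 7×10^3 cells/well overnight, then treated 72 h with 9-point half-log dilutions from a 50 uM starting concentration. Viability measured with CellTiter 96 Aqueous MTS; IC50 calculated from viability.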
`O=C(CCCc1ccc(-c2cnc3[nH]ccc3c2)cc1)Nc1cccnc1` [Compound 181, 4-(4-(1H-pyrrolo[2,3-b]pyridin-5-yl)phenyl)-N-(pyridin-3-yl)butanamide] was tested, and the IC50 was less than 500 nM. `O=C(CCCc1ccc(-c2cnc3ccccc3c2)cc1)Nc1cccnc1` [Compound 183, N-(pyridin-3-yl)-4-(4-(quinolin-3-yl)phenyl)butanamide] was tested, and the IC50 was 1000 to 5000 nM. With `COc1cccc(-c2ccc(CCCC(=O)Nc3cccnc3)cc2)c1F` [Compound 184, 4-(2′-fluoro-3′-methoxy-[1,1′-biphenyl]-4-yl)-N-(pyridin-3-yl)butanamide] the IC50 was less than 500 nM. `O=C(CCCc1cccc(-n2cccn2)c1)Nc1cccnc1` [Compound 185, 4-(3-(1H-pyrazol-1-yl)phenyl)-N-(pyridin-3-yl)butanamide] was tested, and the IC50 was greater than 5000 nM. `O=C(CCCc1ccc(Cc2ccccc2)cc1)Nc1cccnc1` [Compound 186, 4-(4-benzylphenyl)-N-(pyridin-3-yl)butanamide] gave an IC50 greater than 5000 nM. `O=C(CCCc1ccc(-c2ccc(C(F)(F)F)cc2F)cc1)Nc1cccnc1` [Compound 189, 4-(2′-fluoro-4′-(trifluoromethyl)-[1,1′-biphenyl]-4-yl)-N-(pyridin-3-yl)butanamide] showed an IC50 of 1000 to 5000 nM. `O=C(CCCc1ccc(-c2cc3cccnc3cc2F)cc1)Nc1cccnc1` [Compound 190, 4-(4-(7-fluoroquinolin-6-yl)phenyl)-N-(pyridin-3-yl)butanamide] gave an IC50 of less than 500 nM. With `Cc1nn(C)c2ccc(-c3ccc(CCCC(=O)Nc4cccnc4)cc3)cc12` [Compound 191, 4-(4-(1,3-dimethyl-1H-indazol-5-yl)phenyl)-N-(pyridin-3-yl)butanamide] the IC50 was 1000 to 5000 nM. In the case of `O=C(CCCc1ccc(-c2ccc3nccnc3c2)cc1)Nc1cccnc1` [Compound 192, N-(pyridin-3-yl)-4-(4-(quinoxalin-6-yl)phenyl)butanamide], the IC50 is reported as 1000 to 5000 nM. `O=C(CCCc1ccc(-c2cnn(Cc3ccccc3)c2)cc1)Nc1cccnc1` [Compound 193, 4-(4-(1-benzyl-1H-pyrazol-4-yl)phenyl)-N-(pyridin-3-yl)butanamide] gave an IC50 greater than 5000 nM. `O=C(CCCc1ccc(-c2ccc3[nH]cnc3c2)cc1)Nc1cccnc1` [Compound 195, 4-(4-(1H-benzo[d]imidazol-5-yl)phenyl)-N-(pyridin-3-yl)butanamide] gave an IC50 of 501 to 1000 nM. In the case of `O=C(CCCc1ccc(-c2ccc3c(c2)CCC(=O)N3)cc1)Nc1cccnc1` [Compound 196, 4-(4-(2-oxo-1,2,3,4-tetrahydroquinolin-6-yl)phenyl)-N-(pyridin-3-yl)butanamide], the IC50 is reported as less than 500 nM. `O=C(CCCc1ccc(-c2ccc3nccn3c2)cc1)Nc1cccnc1` [Compound 197, 4-(4-(imidazo[1,2-a]pyridin-6-yl)phenyl)-N-(pyridin-3-yl)butanamide] gave an IC50 greater than 5000 nM. Work on `O=C(CCCc1ccc(-c2ccc(-n3cccn3)cc2)cc1)Nc1cccnc1` [Compound 198, 4-(4′-(1H-pyrazol-1-yl)-[1,1′-biphenyl]-4-yl)-N-(pyridin-3-yl)butanamide] yielded an IC50 of 501 to 1000 nM. Work on `Cc1ccc2cc(-c3ccc(CCCC(=O)Nc4cccnc4)cc3)ccc2n1` [Compound 199, 4-(4-(2-methylquinolin-6-yl)phenyl)-N-(pyridin-3-yl)butanamide] yielded an IC50 of 501 to 1000 nM. With `O=C(CCCc1ccc(-c2cc(C(=O)N3CCOCC3)ccc2F)cc1)Nc1cccnc1` [Compound 200, 4-(2′-fluoro-5′-(morpholine-4-carbonyl)-[1,1′-biphenyl]-4-yl)-N-(pyridin-3-yl)butanamide] the IC50 was greater than 5000 nM. `O=C(CCCc1ccc(-c2ccncc2)cc1)Nc1cccnc1` [Compound 202, N-(pyridin-3-yl)-4-(4-(pyridin-4-yl)phenyl)butanamide] gave an IC50 greater than 5000 nM. In the case of `Cc1nn(C)cc1-c1ccc(CCCC(=O)Nc2cccnc2)cc1` [Compound 203, 4-(4-(1,3-dimethyl-1H-pyrazol-4-yl)phenyl)-N-(pyridin-3-yl)butanamide], the IC50 is reported as greater than 5000 nM. Work on `O=C(CCCc1ccc(-c2nnco2)cc1)Nc1cccnc1` [Compound 204, 4-(4-(1,3,4-oxadiazol-2-yl)phenyl)-N-(pyridin-3-yl)butanamide] yielded an IC50 of 1000 to 5000 nM. For `O=C(CCCc1ccc(-c2cnc(N3CCOCC3)nc2)cc1)Nc1cccnc1` [Compound 205, 4-(4-(2-morpholinopyrimidin-5-yl)phenyl)-N-(pyridin-3-yl)butanamide], the IC50 was greater than 5000 nM. With `O=C(CCCc1ccc(-c2ccc3[nH]ncc3c2)cc1)Nc1cccnc1` [Compound 206, 4-(4-(1H-indazol-5-yl)phenyl)-N-(pyridin-3-yl)butanamide] the IC50 was less than 500 nM. `O=C(CCCc1ccc(-c2ccc3[nH]c(=O)oc3c2)cc1)Nc1cccnc1` [Compound 208, 4-(4-(2-oxo-2,3-dihydrobenzo[d]floxazol-6-yl)phenyl)-N-(pyridin-3-yl)butanamide] gave an IC50 of 1000 to 5000 nM. With `O=C(CCCc1ccc(-c2cc3cn[nH]c3cc2F)cc1)Nc1cccnc1` [Compound 209, 4-(4-(6-fluoro-1H-indazol-5-yl)phenyl)-N-(pyridin-3-yl)butanamide] the IC50 was less than 500 nM. Compound `O=C(CCCc1ccc(-c2cnc3[nH]ncc3c2)cc1)Nc1cccnc1` [Compound 210, 4-(4-(1H-pyrazolo[3,4-b]pyridin-5-yl)phenyl)-N-(pyridin-3-yl)butanamide] has an IC50 of less than 500 nM. In the case of `O=C(CCCc1ccc(-c2cnc3c(c2)CCC(=O)N3)cc1)Nc1cccnc1` [Compound 211, 4-(4-(7-oxo-5,6,7,8-tetrahydro-1,8-naphthyridin-3-yl)phenyl)-N-(pyridin-3-yl)butanamide], the IC50 is reported as 1000 to 5000 nM. `O=C(CCCc1ccc(-c2ccc3[nH]ccc3c2)cc1)Nc1cccnc1` [Compound 213, 4-(4-(1H-indol-5-yl)phenyl)-N-(pyridin-3-yl)butanamide] was tested, and the IC50 was less than 500 nM. `Cc1nn(C)c(C)c1-c1ccc(CCCC(=O)Nc2cccnc2)cc1` [Compound 216, N-(pyridin-3-yl)-4-(4-(1,3,5-trimethyl-1H-pyrazol-4-yl)phenyl)butanamide] showed an IC50 greater than 5000 nM. In the case of `O=C(CCCc1ccc(-c2cscn2)cc1)Nc1cccnc1` [Compound 217, N-(pyridin-3-yl)-4-(4-(thiazol-4-yl)phenyl)butanamide], the IC50 is reported as greater than 5000 nM. In the case of `CCOc1cccc(-c2ccc(CCCC(=O)Nc3cccnc3)cc2)c1F` [Compound 218, 4-(3′-ethoxy-2′-fluoro-[1,1′-biphenyl]-4-yl)-N-(pyridin-3-yl)butanamide], the IC50 is reported as less than 500 nM. For `Cc1cccc(-c2ccc(CCCC(=O)Nc3cccnc3)cc2)c1F` [Compound 219, 4-(2′-fluoro-3′-methyl-[1,1′-biphenyl]-4-yl)-N-(pyridin-3-yl)butanamide], the IC50 was less than 500 nM. `O=C(CCCc1ccc(-c2cccc(C(F)(F)F)c2F)cc1)Nc1cccnc1` [Compound 220, 4-(2′-fluoro-3′-(trifluoromethyl)-[1,1′-biphenyl]-4-yl)-N-(pyridin-3-yl)butanamide] showed an IC50 of less than 500 nM. Compound `N#Cc1cccc(-c2ccc(CCCC(=O)Nc3cccnc3)cc2)c1F` [Compound 221, 4-(3′-cyano-2′-fluoro-[1,1′-biphenyl]-4-yl)-N-(pyridin-3-yl)butanamide] has an IC50 of 1000 to 5000 nM. For `O=C(CCCc1ccc(-c2ccc3c(c2)CC(=O)N3)cc1)Nc1cccnc1` [Compound 222, 4-(4-(2-oxoindolin-5-yl)phenyl)-N-(pyridin-3-yl)butanamide], the IC50 was less than 500 nM. `O=C(CCCc1ccc(-c2ccc3[nH]cnc(=O)c3c2)cc1)Nc1cccnc1` [Compound 223, 4-(4-(4-oxo-1,4-dihydroquinazolin-6-yl)phenyl)-N-(pyridin-3-yl)butanamide] gave an IC50 greater than 5000 nM.
